How the values were obtained:
Lemna gibba G3 [1] = assay: Callus induction from Lemna gibba G3 fronds on solid medium with plant growth regulators; assay type: cell-based
Procedure: Duckweed fronds were grown in liquid Hoagland's medium (Hoagland and Snyder, Proc. Amer. Soc. Hort. Sci. 30, 288 (1933)) containing 3% sucrose for two weeks at 23° C. under a 16 hr light/8 hr dark photoperiod with light intensity of approximately 40 μmol/m^2·sec prior to experimentation. For callus induction, eighteen, 100 ml portions of Murashige and Skoog basal medium (Murashige and Skoog, Physiol. Plant. 15, 473 (1962)) containing 3% sucrose, 0.15% Gelrite and 0.4% Difco Bacto-agar were prepared with 2,4-D concentrations of 10, 20 and 50 μM and BA concentrations of 0, 0.01, 0.1, 1.0, 2.0, and 10.0 μM. All media were pH adjusted to 5.8, autoclaved at 121° C. for 20 minutes, cooled, and each 100 ml was poured into 4, 100 mm×15 mm petri dishes.
(§1) A three 2,4-D concentrations×six BA concentrations, full-factorial experimental design (18 treatments in total) with four replications, with one petri dish per replication and 5 fronds per petri dish was used. For callus induction, 5 individual duckweed fronds were placed abaxial side down on each plate of medium. The 72 plates were incubated at 23° C., for 27 days under a 16 hr light/8 hr dark photoperiod with light intensity of approximately 40 μmol/m^2·sec. After 27 days the duckweed tissue was transferred to fresh media of the same type and incubation was continued another 35 days under the same temperature and light culturing conditions.
Duckweed fronds were grown in liquid Hoagland's medium containing 3% sucrose for two weeks at 23° C. under a 16 hr light/8 hr dark photoperiod with light intensity of approximately 40 μmol/m^2·sec. prior to experimentation. For callus induction, forty 100 ml portions of Murashige and Skoog medium with 3% sucrose, 0.15% Gelrite, and 0.4% Difco Bacto-agar were prepared with dicamba concentrations of 10, 20, 30, 40, 50, 60, 80, 100 μM and BA concentrations of 0.01, 0.05, 0.1, 0.5, and 1.0 μM. All media were pH adjusted to 5.8, autoclaved at 121° C. for 20 minutes, cooled, and each 100 ml was poured into 4, 100 mm×15 mm petri dishes.
as §1, with “An eight dicamba concentrations×five BA” for “A three 2,4-D concentrations×six BA”, “design (40” for “design (18”, “The” for “The 72”, “After 28” for “After 27”, “another 45” for “another 35”
Duckweed fronds were grown in liquid Schenk and Hildebrandt medium containing 1% sucrose for two weeks at 23° C. under a 16 hr light/8 hr dark photoperiod with light intensity of approximately 40 μmol/m^2·sec prior to experimentation. For callus induction, three basal media were tested: Murashige and Skoog, Schenk and Hildebrandt, and N6. Benzyladenine was used as the cytokinin at a concentration of 1 μM. The auxin concentrations varied with auxin type. For the relatively strong auxins, 2,4-D and dicamba, concentrations were 0, 1, 5, 10 and 20 μM. For weak auxins, NAA and IBA, the concentrations were 0, 5, 10, 20 and 50 μM. For each medium dose-response experiment, 2 liters of basal medium were prepared with BA and the pH adjusted to 5.8. The volume was aliquoted as 20, 100 ml portions. To each of these portions, the appropriate amount of auxin was added and the medium was adjusted to 0.15% Gelrite, and 0.4% Difco Bacto-agar. The media were autoclaved for 30 minutes at 121° C., cooled and 4, 100 mm×15 mm petri dishes were poured from each 100 ml portion.
A 3 media×4 auxin×5 concentration combinations, 60 treatment, randomized dose-response experimental design was used. The design was replicated two times, with one petri dish per replication and 5 fronds per petri dish.

[2] = test system: L. minor strains 8744 and 8627; assay: Callus induction from Lemna minor fronds, auxin and cytokinin type and concentration; assay type: cell-based; conditions: MS medium, 6 weeks
Procedure: In the auxin type and concentration experiment, four auxins: 2,4-D, NAA, IBA and dicamba were tested, each at four concentrations: 2, 5, 10 and 20 μM, for their ability to induce callus formation from L. minor strains 8744 and 8627. The basal medium used was MS and media and experimental protocol was basically that followed in Example 10. Fronds used in this experiment were grown for 2 weeks prior to plating on callus induction medium under 3 different culture conditions: 1) SH medium without plant growth regulators, 2) F medium with 24 μM 2,4-D and 2 μM 2-iP, and 3) SH medium with 24 μM 2,4-D and 2 μM 2-iP. Fronds were separated, the roots cut off and then plated on induction medium. The fronds were incubated under conditions given in Example 8 for 6 weeks at which time cultures were evaluated for the presence or absence of callus induction, the degree to which the callus proliferated, and the basic morphology of the callus present.
In the cytokinin type and concentration experiment, four cytokinins: BA, kinetin, 2-iP, and thidiazuron were tested, each at five concentrations: 0.05, 0.1, 0.5, 1 and 5 μM, for their ability to induce callus formation from L. minor strains 8744 and 8627. The basal medium used was MS and the media and experimental protocol were basically as described in Example 11. Fronds used in this experiment were grown for 2 weeks prior to plating on callus induction medium under 3 different culture conditions: 1) SH medium without plant growth regulators, 2) F medium with 24 μM 2,4-D and 2 μM 2-iP, and 3) SH medium with 24 μM 2,4-D and 2 μM 2-iP. Fronds were separated, the roots cut off and then plated on induction medium. The fronds were incubated under conditions given in Example 8 for 6 weeks at which time cultures were evaluated for the presence or absence of callus induction, the degree to which the callus proliferated, and the basic morphology of the callus.

[3] = test system: L. minor callus cultures, strain 8744 and strain 8627; assay: Frond regeneration from L. minor callus cultures; assay type: cell-based, Lemna minor; conditions: 8 weeks
Procedure: The effect of medium composition on frond regeneration from L. minor callus cultures was also tested. Seven media formulations were tested: (1) water agar, (2) water agar with 100 μM adenine sulfate, (3) water agar with 10 μM BA, (4) water agar with 10 μM BA and 1 μM IBA, (5) half-strength SH, (6) half-strength SH with 10 μM BA, and (7) half-strength SH with 10 μM BA and 1 μM IBA. […] Callus was incubated on the seven different media for 8 weeks, with continual observation for the development of fronds.

Lemna gibba G3 [4] = assay: GUS expression in fronds after co-cultivation with Agrobacterium tumefaciens AT656 (histochemical staining); assay type: cell-based
Procedure: Duckweed fronds were grown on liquid Schenk and Hildebrandt medium containing 1% sucrose with and without 10 μM indoleacetic acid (IAA), a concentration sufficient to increase proliferation rate. Fronds were grown in 25 ml aliquots of medium in 125 ml flasks, at 23° C. under a 16 hr light/8 hr dark photoperiod with light intensity of approximately 40 μmol/m^2·sec. For co-cultivation, 500 ml of Schenk and Hildebrandt medium containing 1% sucrose, 0.8% agar, 20 mg/L acetosyringone, and with and without 10 μM indoleacetic acid was prepared, pH adjusted to 5.6, autoclaved at 121° C. for 30 minutes, and cooled. Filter-sterilized solutions of acetosyringone, and acetosyringone and indoleacetic acid were added to the cooled medium, to the final, appropriate concentrations. Twenty, 100 mm×15 mm petri dishes were poured from the cooled medium.
A randomized block, experimental design with 2 bacterial strain treatments×2 frond growth media, with 5 replications, with one petri dish per replication, and 20 fronds per petri dish was used. For inoculation, bacteria of each strain were separately resuspended as described in Example 21. For inoculation, individual fronds were separated from clumps, each turned abaxial side up and wounded with a sterile scalpel in the meristematic regions, then transferred to bacterial suspensions of either AT656 or EHA101pJR1, and incubated for 10–15 minutes. For co-cultivation, fronds were transferred to solid Schenk and Hildebrandt medium with 1% sucrose, 0.8% agar and 100 μM acetosyringone with and without 10 μM indoleacetic acid as described above, abaxial side down.
The fronds were co-cultivated for 4 days at 23° C. under a 16 hr light/8 hr dark photoperiod with light intensity of approximately 40 μmol/m^2·sec. The fronds from two plates from each of the four treatments were stained for GUS expression.
Lemna gibba G3 fronds were grown for two weeks on liquid. Schenk and Hildebrandt medium containing 1% sucrose and with or without 10 μM indoleacetic acid in 25 ml aliquots in 125 ml flasks, at 23° C. under a 16 hr light/8 hr dark photoperiod with light intensity of approximately 40 μmol/m^2·sec prior to experimentation. For co-cultivation, 900 ml of Schenk and Hildebrandt medium containing 1% sucrose, 0.8% agar, with and without 10 μM indoleacetic acid, and 20 mg/L acetosyringone was prepared, the pH was adjusted to 5.6, the medium autoclaved at 121° C. for 30 minutes, and cooled. Filter-sterilized solutions of acetosyringone and indoleacetic acid were added to the appropriate, final medium concentrations. Thirty-six, 100 mm×15 mm petri dishes were poured from the cooled medium. Three bacterial media: 1) AB minimal containing 1.6% agar (AB), Difco potato dextrose medium with 1.6% agar (PDA), and mannitol glutamine (Roberts and Kerr, Physiol. […]

[5] = half-strength SH with 10 μM BA only

In the case of `COc1c(Cl)ccc(Cl)c1C(=O)O` [dicamba], the “compact Type I callus induction on MS medium” value (Lemna gibba G3 [1]; auxin with 1 μM BA, five weeks) is reported as “some degree of callus induction”, the “compact Type I callus induction on N6 medium” value (Lemna gibba G3 [1]; auxin with 1 μM BA, five weeks) is reported as “produced callus” and the callus proliferation (Lemna gibba G3 [1]; dicamba 10-100 μM with BA 0.01-1.0 μM, Murashige and Skoog medium, 73 days) is reported as “callus proliferation was poor”. The “concentration above which callus proliferation did not occur” value (Lemna gibba G3 [1]; dicamba with BA 0.01-1.0 μM, Murashige and Skoog medium, 73 days) was “above 30 μM” and the “concentration at which callus induction was observed” value ([2]; strain 8744, auxin experiment) was 20 µM.

For `O=C(O)Cc1cccc2ccccc12` [NAA, naphthaleneacetic acid], the “concentration giving the greatest callus induction” value (Lemna gibba G3 [1]; MS medium, 1 μM BA, five weeks) was 10 µM.

For `O=C(Nc1ccccc1)Nc1cnns1` [TDZ, thidiazuron], the “frequency of callus induction” value (Lemna gibba G3 [1]; cytokinin 0-5 μM with 20 μM 2,4-D, MS medium, five weeks) was “greatest frequency of callus induction”.

`c1ccc(CNc2ncnc3nc[nH]c23)cc1` [BA, benzyladenine] was tested, and the callus induction ([2]; inducing auxin at 2, 5, 10, 20 μM, strains 8744 and 8627) was “not observed”, the “callus growth compared with half-strength SH without plant growth regulators” value [3, 5] was “callus growth was faster” and the “time to frond regeneration compared with half-strength SH” value [3, 5] was “regeneration took longer”.

In the case of `OC[C@@H](O)[C@@H](O)[C@H](O)[C@H](O)CO` [mannitol], the “concentration in bacterial resuspension solution giving the highest frequencies of GUS expression” value (Lemna gibba G3 [4]; 0, 0.2, 0.4, 0.6, 0.8 M tested, regardless of media, 4 days co-cultivation in the dark) is reported as 0.6 M.

`O=C(O)CCCc1c[nH]c2ccccc12` [IBA, indolebutyric acid] was tested, and the “effect on the timing or ability of callus to regenerate fronds” value ([3]; 1 μM IBA added to medium with 10 μM BA) was “had no effect”.

In the case of `O=C(O)Cc1c[nH]c2ccccc12` [IAA, indoleacetic acid], the “effect on frequency of GUS expression after co-cultivation” value (Lemna gibba G3 [4]; fronds grown on 10 μM indoleacetic acid prior to inoculation, 4 days co-cultivation) is reported as “increased the frequency of GUS expression”, the “frequency of GUS expression in meristematic tissue” value (Lemna gibba G3 [4]; fronds grown on SH medium with indoleacetic acid, averaged over PDA and MGL bacterial media) is reported as “approximately 17%” and the “co-cultivated fronds showing GUS expression” value (Lemna gibba G3 [4]; medium containing 10 μM IAA, 4 days co-cultivation (20% without IAA)) is reported as 48%.
